“And” between values parts separate entries of the source, which are not always exact repeats. Identical values can stand only once.
Legend:
[1] = Lipophilicity, shake-flask partitioning between PBS (pH 7.4) and n-octanol; assay type: physicochemical; settings: PBS (pH 7.4) / n-octanol, read-out: log D7.4
Method: The lipophilicity of [^18F]1 was determined by its partitioning between PBS (pH 7.4) and n-octanol by the shake-flask method as previously described.
An aliquot of [^18F]1 (0.37 MBq) was added to a mixture of PBS (pH 7.4) and n-octanol (2 mL each, n = 3) in polypropylene tubes. The mixture was vortexed for one minute, and the organic phase was separated by centrifugation (3000 rpm, 5 min). Next, aliquots of octanol (50 µL) and PBS (500 µL) were collected from each tube into preweighed Eppendorf® tubes and measured for radioactivity in an automated gamma counter (Wallac Wizard™, Perkin Elmer, Waltham, MA, USA). Samples were weighed, and the weights were converted to volume according to solvent density. The partition coefficient value was calculated as the ratio of radioactivity (counts per minute (CPM)/mL) in octanol to that in the aqueous phase.

[2] = tested on: athymic mice bearing HepG2 xenografts; test: Tissue distribution studies in HepG2 xenografts; assay type: in vivo
Method: Based on the promising results obtained with [^18F]1 in vitro, tissue distribution studies were conducted in athymic mice bearing subcutaneous HepG2 tumor xenografts. HepG2 tumor model was selected because of the higher uptake of [^18F]1 in HepG2 cells and a substantial increase in the uptake in response to co-incubation with 100 µM SP-141, compared to that in MCF-7 cells (Figure 5). Groups of five mice were injected intravenously with [^18F]1 and euthanized at 0.5, 1, or 2 h post injection to determine the tissue distribution of [^18F]1. A separate group of animals (n = 4) were injected intraperitoneally with SP-141 (1.2 mg per mouse; ~140 µM) 30 min before [^18F]1 injection to assess the specificity of tracer uptake in tumors. […] At 30 min post injection, radioactivity levels in most organs were ≥3 %ID/g and decreased to ~2 %ID/g by 2 h.
All animal experiments were conducted in accordance with the regulations of the Duke University Institutional Animal Care and Use Committee (IACUC) under an IACUC-approved protocol. Tissue distribution studies were conducted in mice bearing subcutaneous HepG2 tumor xenografts. To generate the tumor model, male athymic mice (Jackson Labs, Farmington, CT, USA) were injected with 5 × 10^6 HepG2 cells suspended in DMEM and Matrigel (Corning®, Corning, NY, USA, 1:1, 100 µL) in the flank; tissue distribution studies were initiated when the tumor volume reached 200 mm^3. For these studies, groups of five mice were injected with [^18F]1 by the intravenous route and euthanized at 0.5, 1, or 2 h post injection (n = 5 per time point) to assess the tissue distribution of [^18F]1 as described previously. A separate group of animals (n = 4) was injected with SP-141 (1.2 mg per mouse; ~140 µM) by intraperitoneal injection 30 min before [^18F]1 injection to assess the specificity of tracer uptake. The concentration of ^18F activity was calculated as the percentage injected dose per gram tissue (%ID/g).

[3] = In vitro stability in human serum (HPLC); assay type: in vitro ADME; settings: 37 °C, 1, 2 and 3 h
Method: Next, the in vitro stability of [^18F]1 was examined by incubating the labeled compound with human serum for up to 3 h at 37 °C, followed by HPLC analysis of the samples using gradient elution conditions.
The stability of [^18F]1 in human serum (Innovative Research Inc., Novi, MI, USA) was analyzed by HPLC using a Chromolith® Performance RP-18e column (4.6 × 100 mm, Millipore Sigma, Burlington, MA, USA), eluted with gradient mixtures of sodium acetate buffer (0.05 M, pH 5.5) and ethanol. The percentage of ethanol was kept at 5% for the first 5 min at a flow rate of 0.5 mL and then increased to 90% over 15 min at a flow rate of 1 mL/min. The stability studies were initiated by incubating human serum (0.5 mL) with [^18F]1 (6.66 MBq in 20 µL ethanol) at 37 °C. Samples (100 µL) were analyzed by HPLC after 0, 1, 2, and 3 h incubation. At each time point, the serum sample was spiked with the nonradioactive 1 (10 µg) before HPLC analysis for identity confirmation of the parent peak ([^18F]1).

[4] = 1 h Block: SP-141 (1.2 mg) i.p. 30 min before i.v. [^18F]1

logD [1]: 2.35 ± 0.19
Biodistribution, Blood ([2]; 30 min post i.v. injection): 4.2 ± 0.6 %ID/g
Biodistribution, Bone ([2]; 30 min post i.v. injection): 3.1 ± 0.6 %ID/g
Biodistribution, Brain ([2]; 30 min post i.v. injection): 2.9 ± 0.8 %ID/g
Biodistribution, Heart ([2]; 30 min post i.v. injection): 4.1 ± 0.7 %ID/g
Biodistribution, Kidneys ([2]; 30 min post i.v. injection): 3.7 ± 0.8 %ID/g
Biodistribution, Large Intestine ([2]; 30 min post i.v. injection): 6.1 ± 1.7 %ID/g
Biodistribution, Liver ([2]; 30 min post i.v. injection): 3.2 ± 0.5 %ID/g
Biodistribution, Lungs ([2]; 30 min post i.v. injection): 3.9 ± 0.6 %ID/g
Biodistribution, Muscle ([2]; 30 min post i.v. injection): 3.5 ± 0.8 %ID/g
Biodistribution, Skin ([2]; 30 min post i.v. injection): 3.7 ± 0.7 %ID/g
Biodistribution, Small Intestine ([2]; 30 min post i.v. injection): 3.9 ± 1.0 %ID/g
Biodistribution, Spleen ([2]; 30 min post i.v. injection): 3.3 ± 0.4 %ID/g
Biodistribution, Stomach ([2]; 30 min post i.v. injection): 5.1 ± 2.0 %ID/g
Biodistribution, Tumor (HepG2 xenograft) ([2]; 30 min post i.v. injection): 3.3 ± 0.3 %ID/g
Biodistribution, Blood [2, 4]: 2.7 ± 0.9 %ID/g
Biodistribution, Bone [2, 4]: 1.9 ± 0.4 %ID/g
Biodistribution, Brain [2, 4]: 3.3 ± 0.5 %ID/g
Biodistribution, Heart [2, 4]: 3.7 ± 0.3 %ID/g
Biodistribution, Kidneys [2, 4]: 3.8 ± 0.4 %ID/g
Biodistribution, Large Intestine [2, 4]: 3.4 ± 1.4 %ID/g
Biodistribution, Liver [2, 4]: 3.3 ± 0.6 %ID/g
Biodistribution, Lungs [2, 4]: 3.5 ± 0.8 %ID/g
Biodistribution, Muscle [2, 4]: 3.3 ± 0.4 %ID/g
Biodistribution, Skin [2, 4]: 3.0 ± 0.7 %ID/g
Biodistribution, Small Intestine [2, 4]: 4.1 ± 0.3 %ID/g
Biodistribution, Spleen [2, 4]: 3.0 ± 0.6 %ID/g
Biodistribution, Stomach [2, 4]: 1.6 ± 1.2 %ID/g
Biodistribution, Tumor (HepG2 xenograft) [2, 4]: 3.2 ± 0.7 %ID/g
Biodistribution, Blood ([2]; 1 h post i.v. injection): 4.1 ± 0.6 %ID/g
Biodistribution, Bone ([2]; 1 h post i.v. injection): 3.6 ± 1.0 %ID/g
Biodistribution, Brain ([2]; 1 h post i.v. injection): 2.6 ± 0.8 %ID/g
Biodistribution, Heart ([2]; 1 h post i.v. injection): 4.0 ± 0.7 %ID/g
Biodistribution, Kidneys ([2]; 1 h post i.v. injection): 3.3 ± 0.6 %ID/g
Biodistribution, Large Intestine ([2]; 1 h post i.v. injection): 7.7 ± 1.8 %ID/g
Biodistribution, Liver ([2]; 1 h post i.v. injection): 2.8 ± 0.4 %ID/g
Biodistribution, Lungs ([2]; 1 h post i.v. injection): 3.8 ± 0.7 %ID/g
Biodistribution, Muscle ([2]; 1 h post i.v. injection): 2.6 ± 0.6 %ID/g
Biodistribution, Skin ([2]; 1 h post i.v. injection): 3.4 ± 0.5 %ID/g
Biodistribution, Small Intestine ([2]; 1 h post i.v. injection): 4.0 ± 0.7 %ID/g
Biodistribution, Spleen ([2]; 1 h post i.v. injection): 2.7 ± 0.7 %ID/g
Biodistribution, Stomach ([2]; 1 h post i.v. injection): 2.7 ± 0.8 %ID/g
Biodistribution, Tumor (HepG2 xenograft) ([2]; 1 h post i.v. injection): 3.0 ± 0.7 %ID/g
Biodistribution, Blood ([2]; 2 h post i.v. injection): 3.3 ± 0.8 %ID/g
Biodistribution, Bone ([2]; 2 h post i.v. injection): 5.4 ± 0.8 %ID/g
Biodistribution, Brain ([2]; 2 h post i.v. injection): 2.0 ± 0.7 %ID/g
Biodistribution, Heart ([2]; 2 h post i.v. injection): 3.3 ± 0.9 %ID/g
Biodistribution, Kidneys ([2]; 2 h post i.v. injection): 2.4 ± 0.6 %ID/g
Biodistribution, Large Intestine ([2]; 2 h post i.v. injection): 7.1 ± 2.9 %ID/g
Biodistribution, Liver ([2]; 2 h post i.v. injection): 2.4 ± 0.5 %ID/g
Biodistribution, Lungs ([2]; 2 h post i.v. injection): 2.1 ± 0.8 %ID/g
Biodistribution, Muscle ([2]; 2 h post i.v. injection): 2.6 ± 0.7 %ID/g
Biodistribution, Skin ([2]; 2 h post i.v. injection): 3.1 ± 0.4 %ID/g
Biodistribution, Small Intestine ([2]; 2 h post i.v. injection): 3.0 ± 0.5 %ID/g
Biodistribution, Spleen ([2]; 2 h post i.v. injection): 2.1 ± 0.4 %ID/g
Biodistribution, Stomach ([2]; 2 h post i.v. injection): 2.1 ± 0.7 %ID/g
Biodistribution, Tumor (HepG2 xenograft) ([2]; 2 h post i.v. injection): 3.0 ± 0.8 %ID/g
Radioactivity levels in most organs / normal tissues ([2]; 2 h post injection): ~ 2 %ID/g and 2–3 %ID/g
Tumor-to-muscle ratio ([2]; 2 h post injection): 1.14 ± 0.18
Tumor-to-normal tissue (tumor-to-background) ratios ([2]; 2 h post injection): < 2
Tumor uptake and retention in HepG2 xenografts ([2]; over the 2-h observation period): ~ 3 %ID/g
Percentage of intact [^18F]1 [3]: ~ 100%
Structure (SMILES): [18F]CCOc1ccc2[nH]c3c(-c4cccc5ccccc45)nccc3c2c1 [[^18F]1]
